The record followed here is PubChem BioAssay AID328 (DTP/NCI, 2004).

“And” between values parts separate entries of the source, which are not always exact repeats. Equal values may be shown once. Inconclusive results and toxic doses are left out.

This experiment deals with BDF1 mice, P388 leukemia ip, median survival T/C. The experiment can be described thus: NCI In Vivo Anticancer Drug Screen. Data for tumor model P388 Leukemia (intraperitoneal) in B6D2F1 (BDF1) mice. Conditions: endpoint: median survival time, higher = longer survival. An outline of the steps: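 Transplantable tumour in mice; compound vs vehicle dosing; survival scored; ratio of treated to control reported.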

Where [1] appears, read: dose: 6.25 mg/kg/injection, schedule: Q04DX003 (ip), vehicle: saline.
Where [2] appears, read: dose: 12.5 mg/kg/injection, schedule: Q01DX009 (ip), vehicle: saline.
[3] abbreviates: dose: 12.5 mg/kg/injection, schedule: Q04DX003 (ip), vehicle: saline.
[4] abbreviates: dose: 25.0 mg/kg/injection, schedule: Q01DX009 (ip), vehicle: saline.
[5] abbreviates: dose: 25.0 mg/kg/injection, schedule: Q04DX003 (ip), vehicle: saline.
[6] abbreviates: dose: 100.0 mg/kg/injection, schedule: Q01DX009 (ip), vehicle: saline with Tween-80.
Setting [7] is: dose: 200.0 mg/kg/injection, schedule: Q01DX009 (ip), vehicle: saline with Tween-80.
[8] abbreviates: dose: 400.0 mg/kg/injection, schedule: Q01DX009 (ip), vehicle: saline with Tween-80.
Setting [9] is: dose: 50.0 mg/kg/injection, schedule: Q01DX009 (ip), vehicle: Klucel (hydroxypropylcellulose) (HPC).
Where [10] appears, read: dose: 100.0 mg/kg/injection, schedule: Q01DX009 (ip), vehicle: Klucel (hydroxypropylcellulose) (HPC).
Where [11] appears, read: dose: 50.0 mg/kg/injection, schedule: Q01DX009 (ip), vehicle: saline.
Where [12] appears, read: dose: 200.0 mg/kg/injection, schedule: Q01DX009 (ip), vehicle: Klucel (hydroxypropylcellulose) (HPC).
Where [13] appears, read: dose: 100.0 mg/kg/injection, schedule: Q01DX001 (ip), vehicle: saline with Tween-80.
Where [14] appears, read: dose: 200.0 mg/kg/injection, schedule: Q01DX001 (ip), vehicle: saline with Tween-80.
[15] abbreviates: dose: 400.0 mg/kg/injection, schedule: Q01DX001 (ip), vehicle: saline with Tween-80.

Take `c1ccc([C@H]2CN3CCSC3=N2)cc1`: the T/C by setting is: (dose: 0.15 mg/kg/injection, schedule: Q01DX009 (ip), vehicle: saline) 100 % of control; (dose: 0.31 mg/kg/injection, schedule: Q01DX009 (ip), vehicle: saline) 100 % of control; (dose: 0.63 mg/kg/injection, schedule: Q01DX009 (ip), vehicle: saline) 100 % of control and 122 % of control; (dose: 1.25 mg/kg/injection, schedule: Q01DX009 (ip), vehicle: saline) 97 % of control and 104 % of control; (dose: 2.5 mg/kg/injection, schedule: Q01DX009 (ip), vehicle: saline) 99 % of control and 104 % of control; (dose: 5.0 mg/kg/injection, schedule: Q01DX009 (ip), vehicle: saline) 100 % of control. Also, the T/C is 94 % of control and 100 % of control (dose: 10.0 mg/kg/injection, schedule: Q01DX009 (ip), vehicle: saline); 94 % of control and 100 % of control (dose: 20.0 mg/kg/injection, schedule: Q01DX009 (ip), vehicle: saline).

For the compound `Cc1nc2ccc(O)cc2cc1CBr`, the T/C is 94 % of control and 105 % of control and 106 % of control (dose: 6.25 mg/kg/injection, schedule: Q01DX009 (ip), vehicle: saline); 98 % of control under setting [1]; 101 % of control and 113 % of control and 118 % of control under setting [2]; 107 % of control under setting [3]; 112 % of control and 119 % of control under setting [4]; 107 % of control under setting [5]. For the same compound, the T/C is 103 % of control (dose: 40.0 mg/kg/injection, schedule: Q01DX009 (ip), vehicle: saline) and 107 % of control (dose: 50.0 mg/kg/injection, schedule: Q04DX003 (ip), vehicle: saline).

As for `CCCCCCC(C)[N+](C)(C)C` (stereo unspecified), the T/C was 116 % of control under setting [1], 100 % of control under setting [3] and 113 % of control under setting [5].

Consider `CNc1ccc2c(c1)C(=O)c1c(C)n(C)c3cccc-2c13`, for which the T/C reads like this: (dose: 12.5 mg/kg/injection, schedule: Q01DX005 (ip), vehicle: saline with Tween-80) 98 % of control; (dose: 25.0 mg/kg/injection, schedule: Q01DX005 (ip), vehicle: saline with Tween-80) 98 % of control.

For the compound `O=C1NNCc2c1oc1ccccc21`, the T/C is 96 % of control (dose: 50.0 mg/kg/injection, schedule: Q01DX009 (ip), vehicle: saline with Tween-80); 114 % of control under setting [6]; 90 % of control under setting [7].

Regarding `O=C(O)c1ccc(C2CC2)cc1`, the T/C reads like this: under setting [6], 95 % of control; under setting [7], 90 % of control; under setting [8], 90 % of control.

Consider `COc1cccc2c1C(=O)c1c(O)c3c(c(O)c1C2=O)CC(O)(C(=O)C(C)C)CC3OC1CC(N)C(O)C(C)O1` (stereo unspecified), for which the T/C is 107 % of control (dose: 9.4 mg/kg/injection, schedule: Q04DX003 (ip), vehicle: water); 107 % of control (dose: 18.8 mg/kg/injection, schedule: Q04DX003 (ip), vehicle: water); 116 % of control (dose: 37.5 mg/kg/injection, schedule: Q04DX003 (ip), vehicle: water); 90 % of control (dose: 75.0 mg/kg/injection, schedule: Q04DX003 (ip), vehicle: water).

Regarding `COc1cccc2c1C(=O)CC2`, the T/C by setting is: (dose: 25.0 mg/kg/injection, schedule: Q01DX009 (ip), vehicle: Klucel (hydroxypropylcellulose) (HPC)) 100 % of control; under setting [9], 100 % of control; (dose: 75.0 mg/kg/injection, schedule: Q04DX003 (ip), vehicle: Klucel (hydroxypropylcellulose) (HPC)) 100 % of control; under setting [10], 96 % of control; (dose: 150.0 mg/kg/injection, schedule: Q04DX003 (ip), vehicle: Klucel (hydroxypropylcellulose) (HPC)) 95 % of control.

In the case of `CCOC(=O)NP(=O)(N1CC1(C)C)N1CC1(C)C` (stereo unspecified), the T/C was 175 % of control (dose: 31.3 mg/kg/injection, schedule: Q01DX010 (ip), vehicle: saline); 175 % of control (dose: 62.5 mg/kg/injection, schedule: Q01DX010 (ip), vehicle: saline); 200 % of control (dose: 125.0 mg/kg/injection, schedule: Q01DX010 (ip), vehicle: saline); 225 % of control (dose: 250.0 mg/kg/injection, schedule: Q01DX010 (ip), vehicle: saline).

As to `CCCCCC(C[N+]1(C)CCOCC1)C(=O)/C=C/c1ccccc1` (stereo unspecified), the T/C under setting [2] was 95 % of control, the T/C under setting [4] is 120 % of control and the T/C under setting [11] is 124 % of control.

Consider `CN1C(C)(C)CC(O)(C(O)(c2ccccc2)c2ccccc2)CC1(C)C`, for which the T/C by setting is: (dose: 12.5 mg/kg/injection, schedule: Q04DX003 (ip), vehicle: Klucel (hydroxypropylcellulose) (HPC)) 109 % of control; (dose: 25.0 mg/kg/injection, schedule: Q04DX003 (ip), vehicle: Klucel (hydroxypropylcellulose) (HPC)) 109 % of control; (dose: 50.0 mg/kg/injection, schedule: Q04DX003 (ip), vehicle: Klucel (hydroxypropylcellulose) (HPC)) 113 % of control.

Regarding `COC(=O)[CH](C[N+](=O)[O-])[Hg][Cl]` (stereo unspecified), the T/C reads like this: (dose: 1.56 mg/kg/injection, schedule: Q01DX009 (ip), vehicle: Klucel (hydroxypropylcellulose) (HPC)) 104 % of control; (dose: 2.32 mg/kg/injection, schedule: Q04DX003 (ip), vehicle: Klucel (hydroxypropylcellulose) (HPC)) 104 % of control; (dose: 3.12 mg/kg/injection, schedule: Q01DX009 (ip), vehicle: Klucel (hydroxypropylcellulose) (HPC)) 113 % of control; (dose: 4.65 mg/kg/injection, schedule: Q04DX003 (ip), vehicle: Klucel (hydroxypropylcellulose) (HPC)) 113 % of control.

For the compound `CC(C)(C1c2ccccc2C(=NO)c2ccccc21)[N+](=O)[O-]` (stereo unspecified), the T/C reads like this: under setting [6], 109 % of control; (dose: 100.0 mg/kg/injection, schedule: Q04DX003 (ip), vehicle: saline with Tween-80) 91 % of control; under setting [7], 90 % of control; (dose: 200.0 mg/kg/injection, schedule: Q04DX003 (ip), vehicle: saline with Tween-80) 100 % of control; under setting [8], 100 % of control; (dose: 400.0 mg/kg/injection, schedule: Q04DX003 (ip), vehicle: saline with Tween-80) 91 % of control.

For `O=C(O)C1CC[N-]CC1.O=C(O)C1CC[N-]CC1.O=C(O)C1CC[N-]CC1.O=C(O)C1CC[N-]CC1.[Br][Rh][Br]`, the T/C was 111 % of control under setting [11]; 92 % of control and 93 % of control (dose: 100.0 mg/kg/injection, schedule: Q01DX009 (ip), vehicle: saline); 93 % of control and 117 % of control (dose: 200.0 mg/kg/injection, schedule: Q01DX009 (ip), vehicle: saline); 116 % of control (dose: 200.0 mg/kg/injection, schedule: Q04DX003 (ip), vehicle: saline); 119 % of control (dose: 400.0 mg/kg/injection, schedule: Q04DX003 (ip), vehicle: saline).

For the compound `OC(CNc1ccc(Cl)cc1)COc1ccc(Cl)cc1Cl` (stereo unspecified), the T/C was 100 % of control under setting [9], 101 % of control under setting [10] and 102 % of control under setting [12].

For the compound `Nc1nc2n[nH]nc2c(=O)[nH]1`, the T/C was 118 % of control (dose: 25.0 mg/kg/injection, schedule: Q01DX010 (ip), vehicle: alkali diluted with saline); 165 % of control (dose: 100.0 mg/kg/injection, schedule: Q01DX010 (ip), vehicle: alkali diluted with saline); 160 % of control and 163 % of control (dose: 200.0 mg/kg/injection, schedule: Q01DX010 (ip), vehicle: alkali diluted with saline).

As for `CCS(=O)(=O)c1cccc2nncn12`, the T/C runs as follows: under setting [13], 108 % of control; under setting [14], 106 % of control; under setting [15], 100 % of control.

Turning to `CN(/N=N/c1nc[nH]c1C(N)=O)C(C)(C)C`, the T/C was 117 % of control under setting [10]; 108 % of control under setting [12]; 88 % of control (dose: 400.0 mg/kg/injection, schedule: Q01DX009 (ip), vehicle: Klucel (hydroxypropylcellulose) (HPC)).

Turning to `O=C(Nc1ccc(F)cc1)Nc1cccc2ccccc12`, the T/C reads like this: under setting [13], 90 % of control; under setting [14], 90 % of control; under setting [15], 90 % of control.
